Test results from ChEMBL document CHEMBL4811222, “Antitumor Activity of Asperphenin B by Induction of Apoptosis and Regulation of Glyceraldehyde-3-phosphate Dehydrogenase in Human Colorectal Cancer Cells” (J Nat Prod, 2021).
pIC50: −log10 of the molar value. The source made the active and inactive calls. No cut-off for these calls is given here.

Assays:
RKO [1] = assay: Antitumor activity against human RKO cells implanted in BALB/c nude mouse assessed as inhibition of tumor growth at 8 mg/kg, ip administered three times per week for 21 days and measured every 3 to 4 days by electronic caliper method; assay type: functional; details: time 21.0 day
RKO [2] = assay: Antiproliferative activity against human RKO cells assessed as inhibition of cell growth incubated for 72 hrs by SRB assay; assay type: functional, cell-based
RKO [3] = assay: Antitumor activity against human RKO cells implanted in ip dosed BALB/c nude mouse assessed as suppression of GAPDH expression in tumor lysates administered three times per week for 21 days by Western blotting analysis; assay type: functional, organism-based; details: Neoplasm, time 21.0 day
SW480 = assay: Antiproliferative activity against human SW480 cells assessed as inhibition of cell growth incubated for 72 hrs by SRB assay; assay type: functional, cell-based; details: SW480, 72 h
RKO [4] = assay: Antitumor activity against human RKO cells implanted in BALB/c nude mouse assessed as inhibition of tumor growth at 4 mg/kg, ip administered three times per week for 21 days and measured every 3 to 4 days by electronic caliper method; assay type: functional; details: time 21.0 day
RKO [5] = assay: Antitumor activity against human RKO cells implanted in BALB/c nude mouse assessed as suppression of Ki67 expression level in tumor lysates at 4 to 8 mg/kg, ip administered three times per week for 21 days by Western blotting analysis; assay type: functional, organism-based; details: Neoplasm, dose 4-8 mg/kg, time 21.0 day
HCT-116 = assay: Antiproliferative activity against human HCT-116 cells assessed as inhibition of cell growth incubated for 72 hrs by SRB assay; assay type: functional, cell-based; details: HCT-116, 72 h
CCD-18Co = assay: Antiproliferative activity against human CCD-18Co cells assessed as inhibition of cell growth incubated for 72 hrs by SRB assay; assay type: cell-based
LS174T = assay: Antiproliferative activity against human LS174T cells assessed as inhibition of cell growth incubated for 72 hrs by SRB assay; assay type: functional, cell-based
RKO [6] = assay: Suppression of GAPDH protein expression in human RKO cells at 2.5 to 10 uM after 24 hrs by Western blotting analysis; assay type: functional, cell-based; details: dose 2.5-10 µM
CCD-841CoN = assay: Antiproliferative activity against human CCD-841CoN cells assessed as inhibition of cell growth incubated for 72 hrs by SRB assay; assay type: cell-based

| pIC50 (SW480) | pIC50 (HCT-116) | SMILES | TGI (RKO [1]) | pIC50 (RKO [2]) | Activity (RKO [3]) | TGI (RKO [4]) | Activity (RKO [5]) | pIC50 (CCD-18Co) | pIC50 (LS174T) | Activity (RKO [6]) | pIC50 (CCD-841CoN) |
| --- | --- | --- | --- | --- | --- | --- | --- | --- | --- | --- | --- |
| < 4.30 | < 4.30 | CCCCCCCCC[C@@H](O)CC(=O)N[C@@H](CC(N)=O)C(=O)N[C@@H](CCC(N)=O)C(=O)N[C@@H](CC(C)C)C1=C(c2c(O)cccc2O)c2c(O)cc(C)cc2C1=O | inactive | < 4.30 | inactive | inactive | inactive | < 4.30 | < 4.30 | inactive | < 4.30 |
| 5.95 | 6.18 | COc1cc([C@@H]2c3cc4c(cc3[C@@H](O[C@@H]3O[C@@H]5CO[C@@H](C)O[C@H]5[C@H](O)[C@H]3O)[C@H]3COC(=O)[C@H]23)OCO4)cc(OC)c1O [ETOPOSIDE] |  | 5.71 |  |  |  | 4.73 | 6.32 |  | 5.06 |
